According to ChEMBL document CHEMBL6120971 (J Med Chem, 2024):
Calls of active or inactive are those of the source. No cut-off for these calls is given here.

What was measured:
MKN-45 [1] = assay: Downregulation of CHCHD2 protein level in human MKN-45 cells at 100 nM incubated for 24 hrs by MS-based quantitative proteomics analysis; assay type: functional, cell-based
[2] = target: Protein cereblon/Importin subunit alpha-1 (Homo sapiens) (UniProt P52292+Q96SW2); assay: PROTAC activity at CRBN/KPNA2 in human MKN-45 cells assessed as induction of c-MET degradation at 6.25 to 100 nM incubated for 24 hrs by Western blot analysis; assay type: cell-based; details: dose 6.25-100 nM
[3] = MRT (0 to infinity) in male Sprague-Dawley rat at 10 mg/kg, iv measured after 24 hrs by LC-MS/MS analysis; assay type: ADME, organism-based; details: in vivo
[4] = Oral bioavailability in male Sprague-Dawley rat at 10 mg/kg measured after 24 hrs by LC-MS/MS analysis; assay type: ADME, organism-based; details: in vivo
[5] = target: T1, Protein cereblon/Hepatocyte growth factor receptor (Homo sapiens, UniProt P08581+Q96SW2); assay: PROTAC activity at CRBN/c-MET in human MKN-45 cells assessed as induction of c-MET degradation at 100 nM preincubated with pomalidomide for 2 hrs followed by compound addition and measured after 24 hrs by Western blot analysis; assay type: cell-based
T1 sequence (P08581 25-1390 limits assumed): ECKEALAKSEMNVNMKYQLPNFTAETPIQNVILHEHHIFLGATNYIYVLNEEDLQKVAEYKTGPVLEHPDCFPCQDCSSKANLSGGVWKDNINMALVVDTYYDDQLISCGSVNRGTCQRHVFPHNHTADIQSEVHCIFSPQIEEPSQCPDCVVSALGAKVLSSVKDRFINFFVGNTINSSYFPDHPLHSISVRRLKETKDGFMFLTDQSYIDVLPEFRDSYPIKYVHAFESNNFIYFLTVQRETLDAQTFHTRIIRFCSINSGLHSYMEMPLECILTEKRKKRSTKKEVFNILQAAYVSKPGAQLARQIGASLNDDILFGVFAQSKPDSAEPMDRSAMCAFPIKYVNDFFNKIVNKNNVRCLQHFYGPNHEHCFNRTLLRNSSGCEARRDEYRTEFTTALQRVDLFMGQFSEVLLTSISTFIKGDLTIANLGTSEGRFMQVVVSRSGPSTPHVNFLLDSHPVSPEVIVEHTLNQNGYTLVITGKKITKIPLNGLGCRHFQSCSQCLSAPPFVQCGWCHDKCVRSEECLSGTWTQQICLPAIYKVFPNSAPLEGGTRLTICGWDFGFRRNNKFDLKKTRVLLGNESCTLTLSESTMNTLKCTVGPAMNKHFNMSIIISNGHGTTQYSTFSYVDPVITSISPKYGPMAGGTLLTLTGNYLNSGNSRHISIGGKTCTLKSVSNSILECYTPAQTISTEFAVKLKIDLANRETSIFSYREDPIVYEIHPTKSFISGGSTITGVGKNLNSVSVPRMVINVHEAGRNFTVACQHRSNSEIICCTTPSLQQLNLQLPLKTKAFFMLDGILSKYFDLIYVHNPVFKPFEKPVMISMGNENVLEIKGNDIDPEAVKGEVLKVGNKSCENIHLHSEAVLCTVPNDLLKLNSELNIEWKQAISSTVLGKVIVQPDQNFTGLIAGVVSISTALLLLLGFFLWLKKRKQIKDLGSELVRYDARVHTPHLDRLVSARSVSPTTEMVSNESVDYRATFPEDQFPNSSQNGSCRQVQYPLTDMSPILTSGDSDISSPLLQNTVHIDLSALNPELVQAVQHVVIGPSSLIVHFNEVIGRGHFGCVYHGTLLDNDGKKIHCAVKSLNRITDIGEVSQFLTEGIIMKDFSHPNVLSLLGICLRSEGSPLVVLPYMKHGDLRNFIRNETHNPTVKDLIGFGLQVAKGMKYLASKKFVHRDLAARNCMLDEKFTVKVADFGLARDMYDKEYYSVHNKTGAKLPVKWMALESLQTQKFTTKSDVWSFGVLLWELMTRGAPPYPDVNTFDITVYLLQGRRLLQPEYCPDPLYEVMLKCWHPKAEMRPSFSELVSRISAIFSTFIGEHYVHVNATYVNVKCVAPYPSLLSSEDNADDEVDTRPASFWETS
T1 sequence (Q96SW2 whole entry partner): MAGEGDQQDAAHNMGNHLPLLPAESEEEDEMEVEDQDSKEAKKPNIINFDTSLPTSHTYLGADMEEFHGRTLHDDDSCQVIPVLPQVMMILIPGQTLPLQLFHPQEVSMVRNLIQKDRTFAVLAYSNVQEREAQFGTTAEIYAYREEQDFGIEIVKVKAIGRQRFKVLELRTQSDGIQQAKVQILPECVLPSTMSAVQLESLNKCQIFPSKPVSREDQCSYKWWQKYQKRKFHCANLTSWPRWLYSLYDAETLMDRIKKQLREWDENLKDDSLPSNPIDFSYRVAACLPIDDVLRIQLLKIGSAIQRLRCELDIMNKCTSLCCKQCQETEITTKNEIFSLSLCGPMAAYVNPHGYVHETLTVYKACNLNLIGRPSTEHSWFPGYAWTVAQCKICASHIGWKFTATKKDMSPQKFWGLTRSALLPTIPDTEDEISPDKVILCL

[6] = target: T1, Protein cereblon/Hepatocyte growth factor receptor; assay: PROTAC activity at CRBN/c-MET in human NGEC cells assessed as induction of c-MET degradation upto 50 nM incubated for 24 hrs by Western blot analysis; assay type: cell-based; details: NGEC cell
[7] = target: T1, Protein cereblon/Hepatocyte growth factor receptor; assay: In vivo PROTAC activity at CRBN/c-MET in BALB/c nude mouse xenografted with human MKN-45 cells assessed as decrease in c-MET protein level in tumor at 10 to 40 mg/kg, po administered once daily for 21 days and measured after 24 hrs post last dose by Western blot analysis; assay type: functional, organism-based; details: dose 10-40 mg/kg, time 22.0 day
[8] = Tmax in male Sprague-Dawley rat at 10 mg/kg, po measured after 24 hrs by LC-MS/MS analysis; assay type: ADME, organism-based; details: in vivo
Mus musculus [9] = assay: Downregulation of c-MET protein level in BALB/c nude mouse lung xenografted with human MKN-45 cells at 10 mg/kg, po measured after 48 hrs by Western blot analysis; assay type: functional, organism-based
[10] = Cmax in male Sprague-Dawley rat at 10 mg/kg, po measured after 24 hrs by LC-MS/MS analysis; assay type: ADME, organism-based; details: in vivo
[11] = target: T1, Protein cereblon/Hepatocyte growth factor receptor; assay: PROTAC activity at CRBN/c-MET in human MKN-45 cells assessed as induction of c-MET degradation at 6.25 nM incubated for 24 hrs by Western blot analysis; assay type: cell-based
[12] = target: T1, Protein cereblon/Hepatocyte growth factor receptor; assay: PROTAC activity at CRBN/c-MET in human PC-3 cells assessed as induction of c-MET degradation at 12.5 to 100 nM incubated for 24 hrs by Western blot analysis; assay type: cell-based; details: dose 12.5-100 nM
[13] = target: T1, Protein cereblon/Hepatocyte growth factor receptor; assay: PROTAC activity at CRBN/c-MET in human MKN-45 cells assessed as induction of c-MET degradation at 100 to 1000 nM incubated for 24 hrs by Western blot analysis relative to control; assay type: cell-based; details: dose 100-1000 nM
MKN-45 [14] = assay: Antiproliferative activity against human MKN-45 cells incubated for 72 hrs by CCK8 assay; assay type: functional, cell-based; details: MKN-45, 72 h
Mus musculus [15] = assay: Downregulation of c-MET protein level in BALB/c nude mouse stomach xenografted with human MKN-45 cells at 10 mg/kg, po measured after 48 hrs by Western blot analysis; assay type: functional, organism-based
[16] = Tmax in male Sprague-Dawley rat at 10 mg/kg, iv measured after 24 hrs by LC-MS/MS analysis; assay type: ADME, organism-based; details: in vivo
[17] = target: T1, Protein cereblon/Hepatocyte growth factor receptor; assay: PROTAC activity at CRBN/c-MET in human MKN-45 cells assessed as induction of c-MET degradation by measuring maximal efficacy incubated for 24 hrs by Western blot analysis relative to control; assay type: cell-based

In the case of `O=C1CCC(N2C(=O)c3ccc(N4CCN(CC5CCN(C(=O)c6ccc(-c7cnc8ncc(Cc9ccc%10ncccc%10c9)n8n7)cc6F)CC5)CC4)cc3C2=O)C(=O)N1` (configuration not stated), the Activity (MKN-45 [1]) is reported as “Active”, the Activity [2] is reported as “inactive” and the MRT inf [3] is reported as 2.56 h. For the same compound, the bioavailability [4] was 16.3%, the Activity [5] was “inactive” and the Activity [6] was “Weak_effect”. For the same compound, the Activity [7] was “Active”, the Tmax [8] was 2 h and the Activity (Mus musculus [9]) was “Not active; Favorable Tissue Specificity Of Compound Observed”. The Cmax [10] was 70.7 ng/mL, the Activity [11] was “Active” and the Activity [12] was “inactive”. For the same compound, the Activity [13] was 100%, the IC50 (MKN-45 [14]) was 4.37 nM and the Activity (Mus musculus [15]) was “Not active; Favorable Tissue Specificity Of Compound Observed”. The Tmax [16] was 4.8 min and the Emax [17] was 96.8%.
